Here are results for three compounds from PMC11965454, “Simultaneous determination of lesinurad and co-administered drugs used in management of gout comorbidities to uncover potential pharmacokinetic interaction in rat plasma” (Scientific Reports, 2025).

The test system of data set [1] is plasma albumin. As to conditions: cited from earlier work.
Data set [2] in a line: Stability of the studied drugs in rat plasma (freeze-thaw, bench-top, long-term), HPLC-DAD. The class given is in vitro ADME. As to conditions: n = 3; for recovery at 6 h, 1000 ng/ml / recovery at 35 days, 1000 ng/ml / recovery at 1000 ng/ml: rat plasma; for recovery at 6 h, 1000 ng/ml / recovery at 6 h, 10000 ng/ml / recovery at 6 h, 25000 ng/ml: 6 h at room temperature; for recovery at 35 days, 1000 ng/ml / recovery at 35 days, 10000 ng/ml / recovery at 35 days, 25000 ng/ml: 35 days at -20 °C; for recovery at 1000 ng/ml / recovery at 10000 ng/ml / recovery at 25000 ng/ml: three cycles -20 °C / room temperature; for recovery at 6 h, 10000 ng/ml / recovery at 35 days, 10000 ng/ml / recovery at 10000 ng/ml: rat plasma, 10,000 ng/ml; for recovery at 6 h, 25000 ng/ml / recovery at 35 days, 25000 ng/ml / recovery at 25000 ng/ml: rat plasma, 25,000 ng/ml. As to the method: Stability studies were conducted by preparing low, medium and high plasma QC samples in triplicates under different conditions and comparing them with freshly prepared quality control samples. Namely, three freeze-thaw cycles (freeze at -20 °C then thaw at room temperature for three cycles), bench-top stability testing for 6 h at room temperature and long-term stability testing for 35 days at -20 °C.

A short description of data set [3]: Drug interaction pharmacokinetic study of LES and ETC, single oral dose, plasma levels by HPLC-DAD. Format: in vivo, Sprague-Dawley rats. As to conditions: for k el: read-out: Ke (converted); for AUC: n=5; for Change of Ke: after repeated administration of the other drug vs alone; for Change of area under the curve (AUC): single oral dose following the repeated administration of the other drug vs alone. The text has this:
The HPLC-DAD system consisted of Agilent 1200 series (auto-injector, quaternary pump, vacuum degasser and diode array and multiple wavelength detector G1315 C/D and G1365 C/D) connected to a computer loaded with Agilent ChemStation Software (Agilent Technologies, Santa Clara, CA, USA). […] The chromatographic separation was achieved using a Zorbax Eclipse Plus C18 (4.6 × 250 mm, 5 μm particle size) column attached to Zorbax Eclipse Plus C18 (4.6 × 12.5 mm, 5 μm particle size) analytical guard column (Agilent Technologies, Santa Clara, CA, USA). The gradient elution was composed of the mobile phase: acetonitrile and 0.05 M potassium dihydrogen orthophosphate eluted in the ratios and at flow rates listed in Table 1 using an injection volume of 50 µL. All determinations were performed at 25 °C. All pH measurements were made using a Hanna pH meter, (RI, USA). Calibration was done using standard buffers of pH 4 and 7 at room temperature.
The internal standard DIC (0.05 mL) was added to each 0.2 mL rat plasma sample. To the rat plasma sample, 0.6 mL of acetonitrile were added. In order to equalize the final volumes in both; the standard calibration curve samples and the rat plasma samples, up to 1 mL of methanol were added. The samples were covered, vortexed for 1 min at high speed followed by centrifugation for 10 min at ~ 2500 × g. The organic layer was transferred to HPLC autosampler vials. For each sample, 50 µL were directly injected into the HPLC system.
The animal study has been designed and the results have been reported in accordance with the ARRIVE Guidelines. All animal experiments were conducted according to an experimental protocol approved by the Institutional Animal Care and Use Committee at Alexandria University (Serial Number 135) and in compliance with the Guide for the Care and Use of Laboratory Animals of the Institute for Laboratory Animal Research of the National Academy of Sciences, U.S.A. Animals were obtained from the animal facility at the Research and Innovation Hub at Alamein International University. Single dose pharmacokinetics of LES and ETC, as well as the effect of repeated administration of one on the PK parameters of the other reflecting the PK interactions if any, were assessed as described in our previous work[33]. Since the parameters of the oral pharmacokinetic investigation in experimental animals, in terms of feeding and fasting durations, oral dosing timing and volumes, blood sampling, as well as time intervals of redosing, can be controlled with relative ease, rat group sizes of 5–6 were sufficient for the detection of statistical difference in previous studies carried out in our laboratory[34],[35], and in other groups[36],[37], including studies that looked into the pharmacokinetics of ETC and LES[27],[38]. As will be seen below, the experiment was designed for paired comparison with before and ater measurements from the same rats, further increasing the power for statistical analysis. As such, ten healthy adult male Sprague-Dawley rats (8 weeks of age, ~ 250 g weight) were randomized into two groups of five rats each: LES PK group and ETC PK group. No criteria were set for animal allocation per group. Rats were housed in polycarbonate cages on wood shavings bedding at the animal facility at Alamein International University under controlled temperature (23 °C) and humidity (45%) and a 12-hour dark/light cycle. Rats were given ad libitum access to drinking water and commercial rodent chow (21% protein, Al-Fajr Animal Feed, Beheira, Egypt) prior to and during the experiment. The PK parameters of single doses of each drug were determined at baseline in the respective group and once more after seven days of administration of the other drug, without a washout period. To elaborate, on Day 0, following twelve hours of fasting, rats in each group received a single dose of the respective drug by oral gavage (15 mg/Kg for LES[27], and 5 mg/Kg for ETC[39]). […]

Data set [4] is described as follows: Stock solution stability (methanol), HPLC-DAD. The class given is physicochemical. As to conditions: stock solution in methanol, n = 3; for recovery at 6 h, 1000 ng/ml / recovery at 6 h, 10000 ng/ml / recovery at 6 h, 25000 ng/ml: 6 h at room temperature, read-out: Stock solution stability (room temp.) Recovery%; for recovery at 30 days, 1000 ng/ml / recovery at 30 days, 10000 ng/ml / recovery at 30 days, 25000 ng/ml: 30 days at 4 °C; for recovery at 6 h, 10000 ng/ml / recovery at 30 days, 10000 ng/ml: 10,000 ng/ml; for recovery at 6 h, 25000 ng/ml / recovery at 30 days, 25000 ng/ml: 25,000 ng/ml.

Setting [5] is: male, Sprague-Dawley, plasma, LES 15 mg/Kg single oral dose alone (Day 0), rat, Mean ± SEM.
The mark [6] stands for this setting: male, Sprague-Dawley, ETC 5 mg/Kg single oral dose alone (Day 0), rat plasma, Mean ± SEM.

Like-named read-outs stand apart in the source and are kept apart here.

Turning to `O=C(O)CSc1nnc(Br)n1-c1ccc(C2CC2)c2ccccc12` [LES, lesinurad], the “Binding to plasma albumin” value in data set [1] (ref PMID: 31191704) is reported as “extensively bound to plasma albumin”. Besides, in data set [2], the recovery at 6 h, 1000 ng/ml was determined as 92.5%; the recovery at 35 days, 1000 ng/ml came to 93.8%; the recovery at 1000 ng/ml worked out at 91.6%; the recovery at 6 h, 10000 ng/ml amounted to 92.5%. In data set [2], this compound came in with a recovery at 35 days, 10000 ng/ml of 94.7%; a recovery at 10000 ng/ml of 93.8%; a recovery at 6 h, 25000 ng/ml of 96.1%; a recovery at 35 days, 25000 ng/ml of 94.6%. This compound showed a recovery at 25000 ng/ml in data set [2] of 92.7%. Moreover, in data set [3] (LES 15 mg/Kg single oral dose alone (Day 0), rat), the Tmax (in general, the time at which the peak concentration occurs) came to 2 h. This compound also returned a Ka in data set [3] (LES 15 mg/Kg single oral dose alone (Day 0), rat, Mean ± SEM) of 3.32 ± 0.78 h⁻¹. For the same compound, in data set [3] (setting [5]), the half-life (commonly the time needed for the level to fall by half in the phase considered) was 3.96 ± 1.07 h and the k el was 7.78e-05 s⁻¹. In data set [3] (male, Sprague-Dawley, LES 15 mg/Kg single oral dose alone (Day 0), rat plasma, Mean ± SEM), the AUC (in general, concentration integrated over time) came out at 9600 ± 1890 ng·h/mL. Moreover, the “Change of Cmax” value in data set [3] (rat, LES after repeated ETC administration vs alone) was “sharp increase in Cmax”. Besides, in data set [3] (rat), the “Change of Ke” value is given as “neither t1/2 nor Ke changed” and the “Change of area under the curve (AUC)” value is recorded as “increased”. Further, in data set [4], the recovery at 6 h, 1000 ng/ml is 97.3%; the recovery at 30 days, 1000 ng/ml was 98.7%; the recovery at 6 h, 10000 ng/ml came to 96.5%; the recovery at 30 days, 10000 ng/ml is 97.2%. Besides, in data set [4], the recovery at 6 h, 25000 ng/ml is 94.8% and the recovery at 30 days, 25000 ng/ml is 99.2%.

With `Cc1ccc(-c2ncc(Cl)cc2-c2ccc(S(C)(=O)=O)cc2)cn1` [ETC, etoricoxib], in data set [1] (ref PMID: 18840026), the “Binding to plasma albumin” value was “extensively bound to plasma albumin”. Also, in data set [2], the recovery at 6 h, 1000 ng/ml was 97.5%; the recovery at 35 days, 1000 ng/ml was determined as 95.8%; the recovery at 1000 ng/ml stood at 98%; the recovery at 6 h, 10000 ng/ml turned out to be 92.8%. In addition, in data set [2], the recovery at 35 days, 10000 ng/ml amounted to 94.1%; the recovery at 10000 ng/ml was 95.3%; the recovery at 6 h, 25000 ng/ml worked out at 92.7%; the recovery at 35 days, 25000 ng/ml was 90.4%. Further, in data set [2], the recovery at 25000 ng/ml amounted to 96.5%. In data set [3] (ETC 5 mg/Kg single oral dose alone (Day 0), rat, method of residuals, Mean ± SEM), this compound gave a Ka of 1.82 ± 0.55 h⁻¹. The k el in data set [3] (male, Sprague-Dawley, plasma, ETC 5 mg/Kg single oral dose alone (Day 0), rat, Mean ± SEM) was 4.17e-05 s⁻¹. Besides, the half-life in data set [3] (male, Sprague-Dawley, plasma, ETC 5 mg/Kg single oral dose alone (Day 0), rat, one phase decay, Mean ± SEM) was 4.88 ± 0.56 h. Also, in data set [3] (male, Sprague-Dawley, plasma, ETC 5 mg/Kg single oral dose alone (Day 0), rat, read-out: Tmax), the Tmax was 1 h. Also, in data set [3] (setting [6]), the Cmax (usually the maximum level reached in the sampled fluid or tissue) stood at 1170 ± 148 ng/mL and the AUC worked out at 11200 ng·h/mL. In addition, the “Change of absorption rate constant (Ka)” value in data set [3] (rat, ETC in the continued presence of LES vs alone) was “increased Ka”. In addition, in data set [3] (rat), the “Change of Ke” value is listed as “neither t1/2 nor Ke changed” and the “Change of area under the curve (AUC)” value is given as “increased”. In data set [4], the recovery at 6 h, 1000 ng/ml was determined as 99.5%; the recovery at 30 days, 1000 ng/ml is 98.3%; the recovery at 6 h, 10000 ng/ml worked out at 99.5%; the recovery at 30 days, 10000 ng/ml is 96.4%. In data set [4], the recovery at 6 h, 25000 ng/ml is 98.8% and the recovery at 30 days, 25000 ng/ml turned out to be 99.2%.

Consider `COC(=O)[C@@H]1CC2=CC(=O)CC[C@]2(C)[C@@]23O[C@@H]2C[C@@]2(C)[C@@H](CC[C@@]24CCC(=O)O4)[C@H]13` [EPL, eplerenone], for which, in data set [2], the recovery at 6 h, 1000 ng/ml is 105%; the recovery at 35 days, 1000 ng/ml was determined as 104%; the recovery at 1000 ng/ml came to 91.9%; the recovery at 6 h, 10000 ng/ml was 96.8%. Also, in data set [2], the recovery at 35 days, 10000 ng/ml stood at 97.6%; the recovery at 10000 ng/ml was 94.3%; the recovery at 6 h, 25000 ng/ml came out at 94.2%; the recovery at 35 days, 25000 ng/ml amounted to 92.6%. This compound also registered a recovery at 25000 ng/ml in data set [2] of 103%. Besides, in data set [4], the recovery at 6 h, 1000 ng/ml came out at 101%; the recovery at 30 days, 1000 ng/ml worked out at 102%; the recovery at 6 h, 10000 ng/ml stood at 102%; the recovery at 30 days, 10000 ng/ml amounted to 97.9%. In data set [4], the recovery at 6 h, 25000 ng/ml worked out at 102% and the recovery at 30 days, 25000 ng/ml amounted to 98.9%.
